From ChEMBL document CHEMBL1165876, “Novel bis-phenanthridine derivatives with easily tunable linkers, study of their interactions with DNA and screening of antiproliferative activity” (Eur J Med Chem, 2010)
Converted amounts (≈) assume the structure as drawn.

Legend:
[1] = Solubility in water; assay type: physicochemical
Calf thymus DNA [2] = experiment: Binding affinity to calf thymus DNA assessed as change in melting temperature in citric acid/NaOH buffer ayt pH 5 at [compound]/[DNA] ratio of 0.1 by tangent method; assay type: nucleic-acid assay; conditions: Bos taurus
Calf thymus DNA [3] = experiment: Binding affinity to calf thymus DNA assessed as change in melting temperature in citric acid/NaOH buffer ayt pH 5 at [compound]/[DNA] ratio of 0.2 by tangent method; assay type: nucleic-acid assay; conditions: Bos taurus
Calf thymus DNA [4] = experiment: Binding affinity to calf thymus DNA assessed as change in melting temperature in citric acid/NaOH buffer ayt pH 5 at [compound]/[DNA] ratio of 0.3 by tangent method; assay type: nucleic-acid assay; conditions: Bos taurus
HeLa = experiment: Cytotoxicity against human HeLa cells after 72 hrs by MTT assay; assay type: functional, cell-based
MIA PaCa-2 = experiment: Cytotoxicity against human MIAPaCa2 cells after 72 hrs by MTT assay; assay type: functional, cell-based; conditions: MIA PaCa-2, 72 h
SW-620 = experiment: Cytotoxicity against human SW620 cells after 72 hrs by MTT assay; assay type: functional, cell-based; conditions: SW-620, 72 h
MCF7 = experiment: Cytotoxicity against human MCF7 cells after 72 hrs by MTT assay; assay type: functional, cell-based; conditions: MCF7, 72 h
NCI-H460 = experiment: Cytotoxicity against human H460 cells after 72 hrs by MTT assay; assay type: functional, cell-based; conditions: NCI-H460, 72 h
Calf thymus DNA [5] = experiment: Binding affinity to calf thymus DNA assessed as fluorescence quenching at pH 7 by fluorimetric titration; assay type: nucleic-acid assay; conditions: Bos taurus
Calf thymus DNA [6] = experiment: Binding affinity to calf thymus DNA assessed as fluorescence quenching at pH 5 by fluorimetric titration; assay type: nucleic-acid assay; conditions: Bos taurus

solubility [1] | ΔTm (Calf thymus DNA [2]) | ΔTm (Calf thymus DNA [3]) | ΔTm (Calf thymus DNA [4]) | log Ks (Calf thymus DNA [5]) | log Ks (Calf thymus DNA [6]) | Structure (SMILES) | IC50 (HeLa) | IC50 (MIA PaCa-2) | IC50 (SW-620) | IC50 (MCF7) | IC50 (NCI-H460)
1000 µM (≈ 600 µg/mL) | 14.3 °C | 16.5 °C | 18.4 °C | – | – | Cc1nc2ccccc2c2ccc(C[C@H](NC(=O)CNC(=O)[C@@H](N)Cc3ccc4c(c3)c(C)nc3ccccc34)C(=O)O)cc12 | > 100 µM | > 100 µM | > 100 µM | > 100 µM | > 100 µM
1000 µM (≈ 337 µg/mL) | 6.5 °C | 8.1 °C | 11.1 °C | 4.7 | 5.5 | Cc1nc2ccccc2c2ccc(C[C@H](NC(=O)CN)C(=O)O)cc12 | – | – | – | – | –
1000 µM (≈ 280 µg/mL) | – | – | 4 °C | – | – | Cc1nc2ccccc2c2ccc(C[C@H](N)C(=O)O)cc12 | > 100 µM | > 100 µM | > 100 µM | > 100 µM | > 100 µM
1000 µM (≈ 543 µg/mL) | 8.6 °C | 11 °C | 11.3 °C | – | 6.7 | Cc1nc2ccccc2c2ccc(C[C@H](NC(=O)[C@@H](N)Cc3ccc4c(c3)c(C)nc3ccccc34)C(=O)O)cc12 | – | – | – | – | –
